The record followed here is ChEMBL document CHEMBL4808253, “Discovery of 1,3,4-oxadiazole derivatives as potential antitumor agents inhibiting the programmed cell death-1/programmed cell death-ligand 1 interaction” (Bioorg Med Chem, 2021).

Molecules are shown by their SMILES. Active and inactive are the calls of the source. The rule behind the calls is not given here.

For orientation: IC50 means the midpoint of a concentration-inhibition curve. As a reminder, the inhibition is the change of the read-out against control, counted positive when it falls.

Series [1] deals with CT26. Briefly: Antiproliferative activity against mouse CT26 cells assessed as inhibition of cell growth incubated for 48 hrs by MTT assay. The class given is functional, cell-based. Particulars: CT26, 48 h. (Tetrazolium assays rely on reduction of a dye to a coloured formazan, in cell work by metabolically active cells.)
Series [2] in a line: Toxicity in BALB/c mouse allografted with mouse CT26 cells assessed as body weight change at 15 mg/kg, ip for 24 hrs measured for 14 days relative to control. Type of series: organism-based. The following applies: in vivo, 336 h, time 14 day.
Series [3] has as its system CT26. The series is described as follows: Antiproliferative activity against […] cells assessed as inhibition of cell growth at 11.11 uM incubated for 48 hrs by MTT assay. Particulars: Mus musculus. The class given is functional.
Series [4] concerns CT26. Briefly: Antitumor activity against mouse CT26 cells allografted in BALB/c mouse assessed as tumor growth inhibition at 15 mg/kg, ip for 24 hrs measured for 14 days relative to control. The class given is functional. Particulars: 336 h, time 14 day, read-out: TGI.
The nature of series [5]: Toxicity in BALB/c mouse allografted with mouse CT26 cells assessed as unusual behaviour at 15 mg/kg, ip for 24 hrs measured for 14 days relative to control. The class given is organism-based. The following applies: in vivo, 336 h, time 14 day.
Series [6] can be described thus: Toxicity in BALB/c mouse allografted with mouse CT26 cells assessed as unusual behaviour at 30 mg/kg, ip for 48 hrs measured for 14 days relative to control. Particulars: in vivo, 336 h, time 14 day. Type of series: organism-based.
The test system of series [7] is CT26. Briefly: Antitumor activity against mouse CT26 cells allografted in BALB/c mouse assessed as tumor growth inhibition at 30 mg/kg, ip for 48 hrs measured for 14 days relative to control. The class given is functional. The following applies: 336 h, time 14 day, read-out: TGI.
The nature of series [8]: Toxicity in BALB/c mouse allografted with mouse CT26 cells assessed as body weight change at 30 mg/kg, ip for 48 hrs measured for 14 days relative to control. Type of series: organism-based. Particulars: in vivo, 336 h, time 14 day.
Series [9] relates to CT26. The series is described as follows: Antitumor activity against […] in BALB/c mouse assessed as increase in infiltration of CD4+ T cells into tumor cells at 15 mg/kg, ip for 48 hrs in presence of 5-Fu by immunohistochemistry analysis. Type of series: functional, organism-based.
Series [10] has as its target T1, Programmed cell death protein 1/Programmed cell death 1 ligand 1 (Homo sapiens, UniProt Q15116+Q9NZQ7). Briefly: Inhibition of PD1/PD-L1 (unknown origin) protein-protein interaction measured after 135 mins by TR-FRET assay relative to control. Type of series: protein-complex assay. Background: TR-FRET usually uses a lanthanide donor and a delayed reading to cut background.

Series [11] can be described thus: Toxicity in BALB/c mouse allografted with mouse CT26 cells assessed as unusual behaviour at 15 mg/kg, ip for 48 hrs measured for 14 days relative to control. The class given is organism-based. The following applies: in vivo, 336 h, time 14 day.
For series [12], the system named is CT26. Briefly: Antitumor activity against mouse CT26 cells allografted in BALB/c mouse assessed as tumor growth inhibition at 15 mg/kg, ip for 48 hrs measured for 14 days relative to control. The class given is functional. Particulars: 336 h, time 14 day, read-out: TGI.
The nature of series [13]: Toxicity in BALB/c mouse allografted with mouse CT26 cells assessed as body weight change at 15 mg/kg, ip for 48 hrs measured for 14 days relative to control. Type of series: organism-based. The following applies: in vivo, 336 h, time 14 day.
In series [14] the test system is CT26. The series is described as follows: Antitumor activity against mouse CT26 cells allografted in BALB/c mouse assessed as tumor growth inhibition at 15 mg/kg, ip for 48 hrs measured for 14 days in presence of 5-Fu relative to control. The class given is functional. Particulars: read-out: TGI.
Series [15] concerns CT26. The series is described as follows: Antitumor activity against […] in BALB/c mouse assessed as increase in infiltration of CD4+ T cells into tumor cells at 15 mg/kg, ip for 48 hrs measured for 14 days relative to control. The class given is functional, organism-based.
In series [16] the target is T1, Programmed cell death protein 1/Programmed cell death 1 ligand 1. Briefly: Inhibition of PD1/PD-L1 (unknown origin). Type of series: protein-complex assay.

T1 sequence (Q15116 whole entry): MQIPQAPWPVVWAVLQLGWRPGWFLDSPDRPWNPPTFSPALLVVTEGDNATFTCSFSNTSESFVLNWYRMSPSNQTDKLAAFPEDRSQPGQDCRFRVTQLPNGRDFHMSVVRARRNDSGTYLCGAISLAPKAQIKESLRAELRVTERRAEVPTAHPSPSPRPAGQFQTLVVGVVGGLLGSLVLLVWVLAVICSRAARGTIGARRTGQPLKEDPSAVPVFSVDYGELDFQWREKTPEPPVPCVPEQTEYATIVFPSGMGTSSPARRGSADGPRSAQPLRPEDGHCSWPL
T1 sequence (Q9NZQ7 whole entry): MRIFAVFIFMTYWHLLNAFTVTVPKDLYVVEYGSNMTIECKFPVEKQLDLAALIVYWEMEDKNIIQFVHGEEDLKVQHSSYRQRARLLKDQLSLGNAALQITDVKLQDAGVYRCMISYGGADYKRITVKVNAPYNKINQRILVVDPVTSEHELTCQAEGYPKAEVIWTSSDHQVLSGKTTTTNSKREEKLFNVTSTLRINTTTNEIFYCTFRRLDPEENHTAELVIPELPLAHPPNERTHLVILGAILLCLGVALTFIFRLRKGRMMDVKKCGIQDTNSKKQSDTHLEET

Turning to `COc1nc(OCc2cccc(-c3ccccc3)c2C)ccc1CNCCNC(C)=O`, the IC50 in the series on CT26 [1] is 3350 nM. The Activity result in series [2] and in [5] was “Non-Toxic” throughout. Besides, the inhibition at 11.11 µM in the series on CT26 [3] is 75%. Moreover, the inhibition in vivo at 15 mg/kg with CT26 [4] was found to be 22.9%.
Turning to `O=c1[nH]cc(F)c(=O)[nH]1` [FLUOROURACIL], the Activity entry in series [6] and in [8] was “Non-Toxic” throughout. Moreover, the inhibition in vivo at 30 mg/kg in the series with CT26 [7] came to 29.8%.
For the compound `Cc1c(COc2ccc(CNC(CO)(CO)CO)c(OCc3nnc(-c4ccccc4)o3)c2)cccc1-c1cccc(OCCCN2CCC(CO)CC2)c1`, the result in the series on CT26 [9] and in the series with CT26 [15] was Active. Also, the IC50 in the series with CT26 [1] came to 19800 nM; in [10], 38 nM. The inhibition at 11.11 µM in the series on CT26 [3] was 75%. For the same compound, the Activity result in series [11] and in series [13] was “Non-Toxic” each time. Also, the inhibition in vivo at 15 mg/kg in the series with CT26 [12] was determined as 35.7%; in the series on CT26 [14], 64.6%.
Consider `Cc1ccccc1-c1cccc(COc2ccc(CNC(CO)(CO)CO)c(OCc3nnc(-c4ccccc4)o3)c2)c1C`, for which, in [10], the IC50 turned out to be 150 nM.
In series [10], `Cc1c(COc2ccc(CNC(CO)(CO)CO)c(OCc3nc(-c4ccc(F)cc4)cs3)c2)cccc1-c1cccc(OCCCN2CCC(CO)CC2)c1` showed an IC50 of 398 nM.
Compound `Cc1c(-c2nc3cc(CN4CC[C@@](C)(C(=O)O)C4)cc(C#N)c3o2)cccc1-c1cccc(NC(=O)c2nc3c(n2C)CCN(C[C@@H](C)O)C3)c1Cl` gave an IC50 in series [16] of less than 10 nM.
`Cc1c(COc2ccc(CNC(CO)(CO)CO)c(OCc3nc(-c4ccc(F)cc4)cs3)c2)cccc1-c1cccc(OCCCN2CCC(O)CC2)c1C`: the IC50 in [10] worked out at 167 nM.
`C[C@@](CO)(NCc1cc(Cl)c(O[C@H]2CCc3c(-c4cccc5c4CC[C@@H]5Oc4nc(OCc5cncc(S(C)(=O)=O)c5)c(CN[C@@](C)(CO)C(=O)O)cc4Cl)cccc32)nc1OCc1cncc(S(C)(=O)=O)c1)C(=O)O` returned an IC50 in [16] of 0.058 nM.
On to `Cc1c(COc2ccc(CNC(CO)(CO)CO)c(OCc3nnc(-c4ccccc4)o3)c2)cccc1-c1cccc(OCCCN2CCOCC2)c1`, for which, in series [10], the concentration for half-maximal inhibition (IC50) came to 642 nM.
With `Cc1c(-c2nc3cc(CN4CCCC[C@H]4C(=O)O)cc(Cl)c3o2)cccc1-c1cccc(NC(=O)c2ccc(CNCCO)cn2)c1Cl`, the IC50 in series [16] is less than 10 nM.
`CS(=O)(=O)c1cncc(COc2nc(O[C@H]3CCc4c(-c5cccc6c5CC[C@@H]6Oc5nc(OCc6cncc(S(C)(=O)=O)c6)c(CN6C[C@@H](O)C[C@H]6C(=O)O)cc5Cl)cccc43)c(Cl)cc2CN2C[C@@H](O)C[C@H]2C(=O)O)c1` yielded an IC50 in [16] of 0.051 nM.
